One molecule from US8008506B2, “Indazole compounds” (priority 2008, dated 2011) can be followed below.

Each structure is given as a SMILES string. pEC50: −log10 of the molar value.

A word on the pEC50: it is the EC50 on a negative log10 scale, so that one unit is a factor of ten. The low end stands for a high EC50, the high end for a low EC50.

Assay [1] concerns the target T1, human α1A adrenergic receptor (Homo sapiens, UniProt P35348).
T1 construct: expressed in transfected cells; host or cells: HEK293 cells, pcDNA3.1(−), hygromycin B selection
T1 sequence (P35348 1-466): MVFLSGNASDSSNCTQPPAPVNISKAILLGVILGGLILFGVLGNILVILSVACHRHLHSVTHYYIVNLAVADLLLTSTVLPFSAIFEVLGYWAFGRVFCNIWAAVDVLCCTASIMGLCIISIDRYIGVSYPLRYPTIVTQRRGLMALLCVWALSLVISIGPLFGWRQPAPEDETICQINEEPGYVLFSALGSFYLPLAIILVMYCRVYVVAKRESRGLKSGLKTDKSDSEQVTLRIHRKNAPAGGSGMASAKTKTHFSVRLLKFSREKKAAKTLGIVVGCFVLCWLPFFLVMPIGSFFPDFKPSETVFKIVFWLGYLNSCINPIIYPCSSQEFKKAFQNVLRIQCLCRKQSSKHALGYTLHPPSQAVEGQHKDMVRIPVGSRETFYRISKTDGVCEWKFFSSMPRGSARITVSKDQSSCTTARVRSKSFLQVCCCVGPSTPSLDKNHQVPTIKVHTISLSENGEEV
Nature of the assay: Test Example 4: human α1A adrenergic receptor agonist activity (Ca flux, Fura-2, transfected HEK293 cells). The assay is classed as cell-based. How it is done:
Measurement of Human α1A Adrenergic Receptor Agonist Activity
The measurement of human α1A adrenergic receptor agonist activity is carried out using HEK293 cells transfected with pcDNA3.1(−) (manufactured by Invitrogen, Inc.) to which human α1A gene has been inserted. These cells are cultured in DMEM medium containing 10% fetal bovine serum, 400 μg/ml hygromycin B (manufactured by Gibco BRL), 100 U/ml penicillin and 100 μg/ml streptomycin. […] The cells are loaded in a CO2 incubator for 30 minutes, and then are washed twice with the Assay Buffer to remove excess Fura-2AM. The cells are centrifuged, and then are prepared into a solution at 5×10^6 cells/ml with the Assay Buffer. Subsequently, the cells are dispensed on a 96-well plate (manufactured by Corning, Inc.) at a volume of 80 μl/well, and the plate is used as a cell plate. […] Subsequently, measurement of fluorescence intensity (excitation wavelength 340 nm and 380 nm, measurement wavelength 500 nm) is initiated at an interval of 2 seconds. After making measurements for about 30 seconds, 20 μl of the test sample from the sample plate is added to the cell plate, and measurements are further continued for 270 seconds. The Ca flux resulting from the test compound is calculated utilizing the difference between the maximum value of fluorescence intensity ratio at the wavelengths 340 nm and 380 nm after the addition of the test compound, and the fluorescence intensity ratio before the addition of the test compound, as the peak height.

The target of assay [2] is T2, human β1 adrenergic receptor (Homo sapiens, UniProt P08588).
T2 construct: expressed in transfected cells; host or cells: CHO (Chinese Hamster Ovary) cells, pcDNA3
T2 sequence (P08588 whole entry): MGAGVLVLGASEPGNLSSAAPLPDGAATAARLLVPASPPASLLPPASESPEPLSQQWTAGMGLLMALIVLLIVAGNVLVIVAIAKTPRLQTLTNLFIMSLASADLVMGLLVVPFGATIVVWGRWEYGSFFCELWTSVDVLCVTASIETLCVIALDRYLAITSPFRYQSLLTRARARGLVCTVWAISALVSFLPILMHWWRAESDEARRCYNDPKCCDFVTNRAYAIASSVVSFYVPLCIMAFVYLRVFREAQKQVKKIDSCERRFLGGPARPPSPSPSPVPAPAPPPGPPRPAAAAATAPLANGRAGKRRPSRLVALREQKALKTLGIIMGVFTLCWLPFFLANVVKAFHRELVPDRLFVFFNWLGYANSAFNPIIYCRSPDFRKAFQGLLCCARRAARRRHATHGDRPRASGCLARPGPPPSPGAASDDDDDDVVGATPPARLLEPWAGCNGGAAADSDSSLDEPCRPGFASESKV
Nature of the assay: Test Example 2-B: human β1 adrenergic receptor agonist activity (method of Test Example 1-B). The assay is classed as cell-based. How it is done:
(§1) The measurement of human β3 adrenergic receptor agonist activity is carried out using CHO (Chinese Hamster Ovary) cells transfected with pcDNA3 (manufactured by Invitrogen, Inc.) to which human β3 gene has been inserted. […] This human β3 cDNA fragment is used as a probe, and the full length human β3 gene is obtained from a human genomic library (manufactured by Clontech Laboratories, Inc.). The above cells are cultured in Ham's F-12 medium containing 10% fetal bovine serum and 400 μg/ml geneticin (manufactured by Invitrogen, Inc.). These cells are seeded on a 96-well plate to a concentration of 2×10^4 cells/well, and after being cultured for about 20 hours, the cells are left to stand in 80 μL of serum-free Ham's F-12 medium for 15 minutes. A test compound is initially dissolved in DMSO, and then is diluted stepwise with Ham's F-12 containing 100 mmol/L HEPES and 1 mmol/L isobutylmethylxanthine. 20 μL of the dilution is added to the cells. After the cells are cultured for 30 minutes, the medium is removed. 0.3. ml of the Assay/lysis Buffer included in cAMP-Screen kit (manufactured by Applied Biosystems, Inc.) is added to the cells, and the cells are incubated at 37° C. for 30 minutes. The resulting cell lysate is subjected to quantification of cAMP with the cAMP-Screen kit. […] Measurement of Human β1 Adrenergic Receptor Agonist Activity

The target in assay [3] is T3, human β2 adrenergic receptor (Homo sapiens, UniProt P07550).
T3 construct: expressed in transfected cells; host or cells: CHO (Chinese Hamster Ovary) cells, pcDNA3
T3 sequence (P07550 whole entry): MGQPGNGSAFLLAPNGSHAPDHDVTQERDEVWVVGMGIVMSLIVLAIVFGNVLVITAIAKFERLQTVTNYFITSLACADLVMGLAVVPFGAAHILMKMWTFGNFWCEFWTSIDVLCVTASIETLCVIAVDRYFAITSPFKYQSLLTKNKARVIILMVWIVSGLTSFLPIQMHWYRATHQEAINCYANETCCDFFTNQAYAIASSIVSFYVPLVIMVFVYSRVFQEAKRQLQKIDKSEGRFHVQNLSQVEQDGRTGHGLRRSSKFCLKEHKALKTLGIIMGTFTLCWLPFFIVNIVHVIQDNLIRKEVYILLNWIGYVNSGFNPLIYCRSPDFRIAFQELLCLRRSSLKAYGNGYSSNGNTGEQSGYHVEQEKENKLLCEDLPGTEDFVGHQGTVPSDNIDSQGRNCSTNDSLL
Nature of the assay: Test Example 3-B: human β2 adrenergic receptor agonist activity (method of Test Example 1-B). The assay is classed as cell-based. The method, then: [Worded in the source for another target; this target is reported under the same test.] as §1, with “β2” for “β1”

The test system of assay [4] is urinary bladder smooth muscle isolated from common marmoset. The experiment in a line: Test Example 7: relaxant activity on urinary bladder smooth muscle isolated from common marmoset. To be noted: KCl 40 mmol/L contraction, papaverine 10^−4 mol/L relaxation taken as 100%. The method, then: Common marmosets are (CLEA Japan, Inc.) exsanguinated to death, and then are subjected to laparotomy to isolate the urinary bladder therefrom. […] The strips are applied a resting tension of 1 g, and are equilibrated for at least 30 minutes. After the resting tension of the strips have been equilibrated, KCl at a final concentration of 40 mmol/L is repeatedly added to the organ bath, and it is confirmed that contraction due to KCl becomes almost constant. […] When the relaxation response at the maximum concentration of the test compound is completed, papaverine at a final concentration of 10^−4 mol/L is added, and the maximum relaxation response of each strip is determined.

The molecule `CS(=O)(=O)Nc1cccc([C@@H](O)CNCCOc2ccc3c(C(F)(F)F)n[nH]c3c2)c1` [Example 4, (R)-N-(3-(1-hydroxy-2-(2-(3-trifluoromethylindazol-6-yloxy)ethylamino)ethyl)phenyl)methanesulfonamide] had a pEC50 in assay [1] of 6.05. In addition, the Emax in assay [1] (HEK293, read-out: α1A receptor I.A.) stood at 40%; in assay [2] (read-out: β1 receptor I.A.), 6.3%; in assay [3] (read-out: β2 receptor I.A.) it was 2.4%. The “β1 receptor EC50” value in assay [2] (Table 2, Test Example 2-B) was “a)”. Moreover, in assay [3] (Table 2, Test Example 3-B), the “β2 receptor EC50” value is listed as “a)”. Besides, in assay [4] (10^−4 M), the “relaxant activity (%) 10^−4 M” value was found to be 73.5%. For the same molecule, the “relaxant activity (%) 10^−5 M” value in assay [4] (10^−5 M) is given as 40.8%.
